Experiments:
IKKε = target: T1, IKKε (Homo sapiens, UniProt Q14164); assay: IKKε kinase assay (384-well flashplate assay); format: biochemical; conditions: 10 μM ATP, 1 nM IKKε; read-out: IKKε enzyme assay IC50
T1 sequence (Q14164 1-716): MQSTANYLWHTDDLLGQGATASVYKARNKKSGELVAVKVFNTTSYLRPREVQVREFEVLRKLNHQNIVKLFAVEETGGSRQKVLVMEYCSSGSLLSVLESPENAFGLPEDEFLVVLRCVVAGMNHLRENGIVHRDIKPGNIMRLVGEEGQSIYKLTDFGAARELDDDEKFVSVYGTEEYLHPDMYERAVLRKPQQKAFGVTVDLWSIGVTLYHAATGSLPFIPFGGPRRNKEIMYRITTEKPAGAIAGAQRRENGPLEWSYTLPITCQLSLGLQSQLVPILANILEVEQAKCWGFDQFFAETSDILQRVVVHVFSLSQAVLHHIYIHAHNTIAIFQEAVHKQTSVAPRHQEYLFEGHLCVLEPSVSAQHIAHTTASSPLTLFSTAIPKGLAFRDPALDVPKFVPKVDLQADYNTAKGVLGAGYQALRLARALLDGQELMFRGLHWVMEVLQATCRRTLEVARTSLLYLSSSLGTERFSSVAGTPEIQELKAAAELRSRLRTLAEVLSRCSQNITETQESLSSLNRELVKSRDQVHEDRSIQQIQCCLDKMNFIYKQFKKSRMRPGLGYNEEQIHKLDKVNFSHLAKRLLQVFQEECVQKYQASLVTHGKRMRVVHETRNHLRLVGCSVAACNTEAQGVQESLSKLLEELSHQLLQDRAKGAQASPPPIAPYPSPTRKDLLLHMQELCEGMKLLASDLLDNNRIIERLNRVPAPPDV
Experimental: Test for the Inhibition of IKKε
IKKε—Kinase Assay (IKKepsilon)
(§1) The kinase assay is performed as 384-well flashplate assay (for example for Topcount measurement).
1 nM IKKε, 800 nM biotinylated IκKα(19-42) peptide (Biotin-C6-C6-[…]) and 10 μM ATP (spiked with 0.3 μCi of ^33P-ATP/well) are incubated at 30° C. for 2 hours in a total volume of 50 μl (10 mM MOPS, 10 mM Mg acetate, 0.1 mM EGTA, 1 mM dithiothreitol, 0.02% of Brij35, 0.1% of BSA, 0.1% of BioStab, pH 7.5) with or without test compound. The reaction is stopped using 25 μl of 200 mM EDTA. After 30 min at room temperature, the liquid is removed, and each well is washed three times with 100 μl of 0.9% sodium chloride solution. Non-specific reaction is determined in the presence of 3 μM MSC2119074 (BX-795). The radioactivity is measured using a Topcount (Perkin Elmer). The results (for example IC50 values) are calculated using program tools provided by the IT Department (for example AssayExplorer, Symyx).

[1] = target: T2, TANK binding kinase (TBK1) (Homo sapiens, UniProt Q9UHD2); assay: TBK1 enzyme assay (384-well flashplate kinase assay); format: biochemical; conditions: 10 μM ATP, 0.6 nM TBK1
T2 sequence (Q9UHD2 1-729): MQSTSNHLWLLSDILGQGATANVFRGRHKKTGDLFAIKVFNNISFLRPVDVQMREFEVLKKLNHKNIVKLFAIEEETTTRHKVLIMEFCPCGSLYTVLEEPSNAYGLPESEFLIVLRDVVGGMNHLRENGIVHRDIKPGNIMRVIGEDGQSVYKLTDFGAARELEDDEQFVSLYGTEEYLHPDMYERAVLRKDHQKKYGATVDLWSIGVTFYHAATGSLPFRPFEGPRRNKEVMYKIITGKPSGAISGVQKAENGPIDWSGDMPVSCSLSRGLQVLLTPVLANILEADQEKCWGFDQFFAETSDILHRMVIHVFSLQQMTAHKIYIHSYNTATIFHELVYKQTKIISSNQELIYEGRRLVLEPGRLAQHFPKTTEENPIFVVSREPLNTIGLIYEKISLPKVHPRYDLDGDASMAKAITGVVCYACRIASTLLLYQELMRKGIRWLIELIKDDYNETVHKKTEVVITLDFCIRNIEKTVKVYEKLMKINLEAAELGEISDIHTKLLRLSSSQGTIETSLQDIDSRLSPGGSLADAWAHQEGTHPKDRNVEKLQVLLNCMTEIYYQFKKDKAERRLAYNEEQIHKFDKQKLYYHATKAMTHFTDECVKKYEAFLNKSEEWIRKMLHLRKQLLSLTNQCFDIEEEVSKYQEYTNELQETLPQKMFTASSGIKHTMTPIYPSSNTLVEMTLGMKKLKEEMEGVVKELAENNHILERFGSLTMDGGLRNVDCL
Experimental: Test for the Inhibition of TBK1
as §1
0.6 nM TANK binding kinase (TBK1), 800 nM biotinylated MELK-derived peptide (biotin-Ah-Ah-[…]) and 10 μM ATP (spiked with 0.25 μCi of ^33P-ATP/well) are incubated at 30° C. for 120 min in a total volume of 50 μl (10 mM MOPS, 10 mM Mg acetate, 0.1 mM EGTA, 1 mM DTT, 0.02% of Brij35, 0.1% of BSA, pH 7.5) with or without test compound. The reaction is stopped with 25 μl of 200 mM EDTA. After 30 min at room temperature, the liquid is removed, and each well is washed three times with 100 μl of 0.9% sodium chloride solution. Non-specific reaction is measured in the presence of 100 nM staurosporine. The radioactivity is measured in a Topcount (PerkinElmer). The results (for example IC50 values) are calculated using program tools provided by the IT Department (for example Assay-Explorer, Symyx). Cell Test

Compound | IC50 (IKKε) | IC50 [1]
Cn1cc(-c2cnc3[nH]cc(-c4ccc(OC5COC5)c(C#N)c4)c3c2)cn1 [Compound A31, 5-[5-(1-methyl-1H-pyrazol-4-yl)-1H-pyrrolo[2,3-b]pyridin-3-yl]-2-(oxetan-3-yloxy)benzonitrile] | < 300 nM | < 300 nM
Cn1cc(-c2cnc3[nH]cc(-c4ccc(OCC5(C)COC5)c(C#N)c4)c3c2)cn1 [Compound A32, 2-(3-methyloxetan-3-ylmethoxy)-5-[5-(1-methyl-1H-pyrazol-4-yl)-1H-pyrrolo[2,3-b]pyridin-3-yl]benzonitrile] | < 300 nM | < 300 nM
N#Cc1cc(-c2c[nH]c3ncc(-c4cnn(CCN5CCCC5)c4)cc23)cnc1OC1CCOCC1 [Compound A33, 5-{5-[1-(2-Pyrrolidin-1-ylethyl)-1H-pyrazol-4-yl]-1H-pyrrolo[2,3-b]pyridin-3-yl}-2-(tetrahydropyran-4-yl-oxy)nicotinonitrile] | < 300 nM | < 300 nM
N#Cc1cc(-c2c[nH]c3ncc(-c4cnn(C5COC5)c4)cc23)ccc1OC1COC1 [Compound A34, 2-(oxetan-3-yloxy)-5-[5-(1-oxetan-3-yl-1H-pyrazol-4-yl)-1H-pyrrolo-[2,3-b]pyridin-3-yl]benzonitrile] | < 300 nM | < 300 nM
CC1(COc2ccc(-c3c[nH]c4ncc(-c5cnn(C6COC6)c5)cc34)cc2C#N)COC1 [Compound A35, 2-(3-methyloxetan-3-ylmethoxy)-5-[5-(1-oxetan-3-yl-1H-pyrazol-4-yl)-1H-pyrrolo[2,3-b]-pyridin-3-yl]benzonitrile] | < 300 nM | < 300 nM
CC1(COc2ccc(-c3c[nH]c4ncc(-c5cn[nH]c5)cc34)cc2C#N)COC1 [Compound A36, 2-(3-methyloxetan-3-ylmethoxy)-5-[5-(1H-pyrazol-4-yl)-1H-pyrrolo[2,3-b]pyridin-3-yl]benzonitrile] | < 300 nM | < 300 nM
N#Cc1cc(-c2c[nH]c3ncc(-c4cnn(C5COC5)c4)cc23)cnc1OC1CCOCC1 [Compound A37, 5-[5-(1-Oxetan-3-yl-1H-pyrazol-4-yl)-1H-pyrrolo-[2,3-b]pyridin-3-yl]-2-(tetrahydropyran-4-yloxy)-nicotinonitrile] | < 300 nM | < 300 nM
COCCn1cc(-c2cnc3[nH]cc(-c4cnc(OC5CCOCC5)c(C#N)c4)c3c2)cn1 [Compound A38, 5-{5-[1-(2-Methoxyethyl)-1H-pyrazol-4-yl]-1H-pyrrolo-[2,3-b]pyridin-3-yl}-2-(tetrahydropyran-4-yloxy)-nicotinonitrile] | < 300 nM | < 300 nM
